Measured values: patent US20090325984A1, “USE OF 1,7-DIMETHYLXANTHINE FOR THE MANUFACTURE OF A NON-ANXIOGENIC PSYCHOANALEPTIC DRUG FOR THE TREATMENT OF A NEUROPSYCHIATRIC DISORDER” (Pierre Fabre Medicament, priority 2006, published 2009)
Entries after “also recorded” stand apart in the source; their conditions may differ.

What was measured:
Assay type in all cases: in vivo
[1] = tested on: male CD1 albino mice; test: Black-white box test in the mouse; conditions: 50 mg/kg; for amount of time spent in the lighted compartment: 20 minutes after injection, vs controls
Experimental: The black-white box test measures the state of anxiety of animals as a function of their aversion to light. The apparatus consists of two compartments of the same size (length=21 cm, width=15 cm, height=25 cm), one painted white and illuminated by a 40 W bulb, the other painted black and closed with a cover. The animal can pass from one compartment to the other via to an opening 5 cm-square in the lower portion of the partition. After the injection, the animals were isolated for 20 minutes and then placed in the black compartment with their head facing the corner opposite the opening. Using a mirror placed above the apparatus, the time before first entering the lit compartment, the number of times entering and the time spent in the lighted compartment were measured. The two compartments were cleaned between each test.

[2] = tested on: male CD1 albino mice; test: Raised cross-shaped labyrinth test in the mouse; conditions: for anxiogenic effect in the raised cross-shaped labyrinth test / number of times the mice entered the open arm: 50 mg/kg; for number of times the mice entered the open arm: five minutes recording
Description: The raised cross-shaped labyrinth test measures the animals' anxiety level based on its spontaneous aversion to voids (80). The apparatus is composed of four arms, placed at right angles, each measuring 18×6 cm; it rests on a pedestal 60 cm above the floor. Two of the arms have 6 cm-high side walls and are laid out end to end; these are the “closed” arms. […] After receiving their injections, the animals were isolated for twenty minutes and then placed in the labyrinth, at the center of the cross, with their head in the direction of a closed arm. Movements by the animals were recorded for five minutes by a video camera connected to image analysis software (Videotrack). The labyrinth was cleaned after each animal's test.

[3] = tested on: male CD1 albino mice; test: Locomotor activity (horizontal and vertical) in the mouse
Experimental: The animals were placed in groups of 20 in plexiglass cages (38×24×18 cm) and kept in a ventilated animal facility where the temperature was maintained at 21±1° C. The animals had free access to water and food; artificial lighting established a day/night cycle (daytime between 7:00 a.m. and 7:00 p.m.). Experiments were conducted between 11:00 a.m. and 6:00 p.m. […] The solutions were stabilized with Cremophor EL (Sigma) to a final concentration of 15%. The solutions were injected by intraperitoneal route in a dose of 10 ml/kg. Before each test, the animals were isolated for 20 minutes in plexiglass cages (27×13×13 cm); they had food at their disposal. […] Photoelectric sensors in the chambers measured the horizontal and vertical activity of the animals, expressed as the number of interrupted beams, and the data was analyzed using a software application (Omnitech Electronics Inc., Columbus, Ohio, USA). […] Animals were placed in the activity monitoring system immediately after receiving the injection. The chambers were cleaned after each animal's test.

[4] = tested on: male CD1 albino mice; test: Hole-board test in the mouse; conditions: 50 mg/kg; for number of edges explored / number of holes explored: 20 minutes after injection, vs solvent
Experimental: The hole-board test investigates curiosity and is negatively affected by anxiety. This apparatus, placed 60 cm above the floor, consists of a square platform of opaque plastic, 40 cm on each side, with 16 evenly distributed holes of such size that an animal is able to pass its head through. The animals were injected and then isolated for 20 minutes before being placed at the center of the platform. The number of holes and edges explored by each animal was counted. The apparatus was cleaned after each animal's test.

[5] = tested on: male Wistar rats; test: Vogel conflict test in the rat; conditions: intraperitoneal, 1, 10, 25 and 50 mg/kg
Experimental: Experiments were performed using male Wistar rats weighing 180 g to 280 g according to the procedure described by Vogel et al. (Psychopharmacologia, 1971, 21: 1-7). Animals were deprived of water for 48 hours and then individually placed in a plexiglass chamber (15×32×34 cm) whose floor consisted of conducting metal bars spaced 1 cm apart. In the center of one of the chamber's walls was placed a metal cup connected to an electric shock generator (1.7 mA; 1 s).
During the test, the animal, which is left free to explore the apparatus, receives an electric shock each time it consumes water from the cup. A researcher blind to the treatment received by the animal counts the number of times that the animal consumes water and is punished by the electric shock. An increase in the number of times an animal consumes water indicates an anxiolytic effect, whereas a reduction in this number indicates an anxiogenic effect.
Paraxanthine was dissolved under heating in sodium benzoate (30 mg/ml) with the addition of Cremophor EL to a final concentration of 15% and administered by intraperitoneal route at doses of 1 mg/kg, 10 mg/kg, 25 mg/kg and 50 mg/kg. Clobazam was used as the reference anxiolytic; it was dispersed in a 0.2% hydroxypropylmethylcellulose solution and administered by intraperitoneal route at a dose of 32 mg/kg.

[6] = tested on: NMRI mice; test: Four-plate test in the mouse; conditions: intraperitoneal, 25 mg/kg (P<0.05)
Experimental: Experiments were performed using NMRI mice weighing 20 g to 30 g according to the method described by Aron et al. (Neuropharmacology, 1971, 10:459-469). Animals were placed in a plastic chamber whose floor consisted of four metal plates independently connected to an electric shock generator (2.5 mA; 1.5 s). The animal is initially left free to explore the apparatus for 15 seconds, after which it receives an electric shock each time it crosses between two metal plates. An increase in the number of crossings indicates anxiolytic activity, whereas a reduction in this number indicates anxiogenic activity.
Paraxanthine was dissolved under heating in sodium benzoate (30 mg/ml) with the addition of Cremophor EL to a final concentration of 15% and administered by intraperitoneal route at doses of 1 mg/kg, 10 mg/kg, 25 mg/kg and 50 mg/kg. Clobazam was used as the reference anxiolytic; it was dispersed in a 0.2% hydroxypropylmethylcellulose solution and administered by intraperitoneal route at a dose of 16 mg/kg.

## Cn1c(=O)c2c(ncn2C)n(C)c1=O [caffeine, 1,3,7-Trimethylxanthine]
[1]
  anxiolytic effect in the black-white box test: does not; also recorded: did not have an anxiolytic effect
  amount of time spent in the lighted compartment: did not change
[2]
  anxiogenic effect in the raised cross-shaped labyrinth test: is anxiogenic; also recorded: has an anxiogenic effect
  number of times the mice entered the open arm: reduced the number of times the mice entered the open arm
[3]; intraperitoneal, 10 mg/kg
  duration of stimulation of horizontal locomotor activity: at least one hour
[3]; intraperitoneal, 10 mg/kg, significant only 30 minutes after the injection (P<0.05)
  vertical locomotor activity: stimulated the animals' vertical locomotor activity
[3]; intraperitoneal, 10 mg/kg, within the first 10 minutes (P<0.05)
  horizontal locomotor activity: stimulated animals' horizontal locomotor activity
[3]; intraperitoneal, 25 mg/kg
  duration of stimulation of horizontal locomotor activity: 40 min
[3]; intraperitoneal, 25 mg/kg, 10 minutes after the injection (P<0.05)
  horizontal locomotor activity: stimulated this activity
[3]; intraperitoneal, 100 mg/kg
  duration of decrease of vertical activity: 40 min
[3]; intraperitoneal, 100 mg/kg, from the first measurement period (P<0.05)
  vertical locomotor activity: vertical activity decreased relative to that of the controls
[3]; intraperitoneal, 60 minutes
  horizontal activity for one hour (cumulative): stimulated by caffeine only at doses of 10 mg/kg (P<0.01) and 25 mg/kg (P<0.05)
[3]; intraperitoneal, doses lower than 10 mg/kg or higher than 25 mg/kg, vs solvent alone
  horizontal locomotor activity: no significant difference
[3]; same conditions
  range of doses with stimulating effect on locomotor activity: 10 to 25 mg/kg
  stimulating effect on locomotor activity compared with paraxanthine: the effect is less
[4]
  anxiogenic effect in the hole-board test: has an anxiogenic effect; also recorded: had an anxiogenic effect
  number of edges explored: significantly decreased
  number of holes explored: significantly decreased

## Cn1c(=O)[nH]c2ncn(C)c2c1=O [paraxanthine, 1,7-dimethyl-3,7-dihydro-1H-purine-2,6-dione]
[1]
  anxiolytic effect in the black-white box test: has an anxiolytic effect; also recorded: exhibited an anxiolytic effect
  amount of time spent in the lighted compartment: increased the amount of time spent in the lighted compartment
[1]; vs animals treated with caffeine (P<0.05)
  number of times entering the lighted compartment: went into the lighted compartment more often than animals treated with caffeine
[5]
  anxiogenic effect in the Vogel conflict test: did not have an anxiogenic effect; also recorded: did not demonstrate an anxiogenic effect
  number of times animals consumed water: did not decrease
[2]
  anxiogenic effect in the raised cross-shaped labyrinth test: not the case
  number of times the mice entered the open arm: had no effect
[2]; 50 mg/kg (high doses)
  anxiolytic effect in the raised cross-shaped labyrinth test: has an anxiolytic effect
[2]; increasing doses from 1 mg/kg to 50 mg/kg (P<0.05 at 50 mg/kg)
  time spent by the animals in the open arm: increased until a significant effect was exhibited at a dose of 50 mg/kg
[6]
  anxiolytic activity (number of crossings between two plates): has anxiolytic activity; also recorded: exhibited anxiolytic activity
[3]; doses from 1 mg/kg up to 50 mg/kg
  stimulating effect on locomotor activity: dose-dependant stimulating effect
[3]; intraperitoneal, 1 mg/kg
  duration of stimulation of horizontal locomotor activity: 30 min
[3]; intraperitoneal, 1 mg/kg, from the first 10-minute measurement period, vs solvent (P<0.05 or P<0.01)
  horizontal locomotor activity: stimulated horizontal locomotor activity
[3]; intraperitoneal, comparable to horizontal activity, effect of 1 mg/kg more difficult to demonstrate
  vertical locomotor activity: stimulated the animals' vertical locomotor activity
[3]; intraperitoneal, doses higher than 1 mg/kg
  duration of stimulation of horizontal locomotor activity: at least one hour
[3]; intraperitoneal, doses higher than 1 mg/kg (P<0.01 or P<0.001)
  horizontal locomotor activity: the effect was more marked
[4]
  anxiogenic effect in the hole-board test: not the case; also recorded: did not
  number of edges explored: did not have any effect
  number of holes explored: did not have any effect
